From patent US20230127046A1, “G9a INHIBITOR” (RIKEN, priority 2019, published 2023) come the findings set out here.

For experiment [1], the system named is human lung cancer cell line NCI-H460. Nature of the experiment: Colony formation inhibition test. Type of experiment: cell-based. The following applies: 288 h, NCI-H460 cells, culture for 12 days, read-out: Inhibitory activity (colony formation GI50). The method, then:
Each compound was evaluated for its colony formation inhibitory activity against a human lung cancer cell line NCI-H460. The NCI-H460 cells were cultured in a DMEM medium (FUJIFILM Wako Pure Chemical Corp., 044-29765) containing 10% fetal bovine serum and 4 mM glutamine. The cultured cells were washed with PBS, then detached with trypsin/EDTA, and adjusted to 2×10^3 cells/mL to prepare a cell suspension. The cell suspension was inoculated at 1 mL/well to a 12-well microplate (Corning Inc., 3513), and the test compound (DMSO solution) was added at 1 μL/well, followed by culture for 12 days under conditions of 37° C. and 5% CO2. DMSO was added at 1 μL/well to control wells with a final DMSO concentration set to 0.1%. The medium was discarded every day or every two days, and a fresh medium was added at 1 mL/well. The test compound or DMSO was added at 1 μL/well. The proportion of a colony of each well was measured using a high-speed cell imaging system (Tomy Digital Biology Co., Ltd., Celigo). The ratio of the colony in each compound-supplemented group was determined with the ratio of the colony formed in a test compound solution-unsupplemented well defined as 1. A compound concentration necessary for suppressing the rate of colony formation by 50% of the control (GI50) was calculated using data analysis software Origin (LightStone Crop.).

For experiment [2], the system named is intracellular histone H3K9 dimethylation level in human lung cancer cell line NCI-H460. Nature of the experiment: Histone H3K9 dimethylation inhibitory activity test (Western blotting). It counts as cell-based. The following applies: NCI-H460 cells, 72 hours. The procedure: The inhibitory activity of each compound against G9a was evaluated by adding the compound to a human lung cancer cell line NCI-H460, and detecting change in intracellular histone H3K9 dimethylation level by Western blotting. The NCI-H460 cells were cultured in a DMEM medium (FUJIFILM Wako Pure Chemical Corp., 044-29765) containing 10% fetal bovine serum and 4 mM glutamine. The cultured cells were washed with PBS and then detached with trypsin/EDTA, and the cell suspension was adjusted to 2.5×10^4 cells/mL. The cell suspension was inoculated at 500 μL/well to a 24-well microplate (Thermo Fisher Scientific, Inc., 142475) and cultured overnight under conditions of 37° C. and 5% CO2. On the next day, the test compound (solution in DMSO) was added at 0.5 µL/well and reacted for 72 hours under conditions of 37° C. and 5% CO2. DMSO was added at 0.5 μL/well to control wells (final DMSO concentration: 0.1%). The medium was removed, and the cells were washed with PBS. Then, a 2×SDS-PAGE sample buffer (100 mM Tris-HCl (pH 6.8), 4% sodium lauryl sulfate, 2% 2-mercaptoethanol, 20% glycerol, 0.005% bromophenol blue) was added at 50 μL/well to prepare a sample. The recovered sample was heated at 95 to 100° C. for 10 minutes, and protein was separated by polyacrylamide gel electrophoresis (SDS-PAGE). Subsequently, the separated protein was transferred to a polyvinylidene fluoride (PVDF) membrane by semi-dry blotting. The PVDF membrane was dipped in 3% skimmed milk (dissolved in PBS containing 0.05% Tween 20 (PBST)), blocked at room temperature for 30 to 60 minutes, then dipped in an anti-dimethylated histone H3K9 antibody (Abcam plc, ab1220) diluted 1000-fold with 3% skimmed milk, and reacted overnight at 4° C. On the next day, the PVDF membrane was washed three times with PBST, then dipped in a HRP (horseradish peroxidase)-labeled anti-mouse IgG antibody diluted 10000-fold with skimmed milk, and reacted at room temperature for 1 hour. The PVDF membrane was washed three times with PBST, then dipped in chemiluminescent substrate solution Immobilon Western Chemiluminescent HRP Substrate (Merck Millipore, WBKLS0500), incubated at room temperature for 5 minutes, and photographed with Lumino Image Analyzer (GE Healthcare Japan Corp., ImageQuant LAS4000).
Then, the antibody was stripped from the PVDF membrane using re-probe reagent EzReprobe (ATTO Corp., WSE-7240), and trimethylated histone H3K9 and histone H3 were detected by the same procedures as above. An anti-trimethyl histone H3K9 antibody (39161, diluted 1000-fold) from Active Motif, Inc. and an anti-histone H3 antibody (ab1791, diluted 2000-fold) from Abcam plc were used in the detection. The band of each protein was quantified from the taken image using image processing software ImageJ (NIH). The ratios of dimethylated histone H3K9 and trimethylated histone H3K9 to the histone H3 protein were calculated with the numeric value of a compound-unsupplemented sample defined as 100%. A compound concentration at which the ratio of dimethylated histone H3K9 was 50% was calculated as a 50% inhibition concentration (IC50 value) using data analysis software Origin (LightStone Corp.).
In general terms: A western blot detects proteins with antibodies after separation by electrophoresis.

The target of experiment [3] is T1, recombinant human G9a protein (Homo sapiens, UniProt Q96KQ7).
T1 construct: purchased BPS Bioscience Inc. #51001
T1 sequence (Q96KQ7 785-1210 limits assumed): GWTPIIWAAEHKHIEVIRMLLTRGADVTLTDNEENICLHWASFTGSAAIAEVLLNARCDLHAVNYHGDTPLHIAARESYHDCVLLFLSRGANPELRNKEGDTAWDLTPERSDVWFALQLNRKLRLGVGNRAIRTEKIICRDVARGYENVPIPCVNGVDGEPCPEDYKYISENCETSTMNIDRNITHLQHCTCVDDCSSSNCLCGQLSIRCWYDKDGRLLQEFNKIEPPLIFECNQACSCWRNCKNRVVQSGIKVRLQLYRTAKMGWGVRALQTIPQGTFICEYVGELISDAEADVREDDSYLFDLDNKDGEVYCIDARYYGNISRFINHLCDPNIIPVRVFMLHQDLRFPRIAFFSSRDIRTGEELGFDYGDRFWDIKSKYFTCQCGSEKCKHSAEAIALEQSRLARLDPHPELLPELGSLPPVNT
Nature of the experiment: G9a inhibitory activity test (ALPHA). It counts as biochemical. In a few lines:
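Human G9a (0.05 to 0.1 nM) in Tris pH 9.0 buffer preincubated with compound 10 min, then biotinylated histone H3 (1-21) peptide and SAM mixed 1:1 from 500 nM and 150 μM solutions, 1 h at room temperature. H3K9me2 detected by AlphaLISA acceptor/streptavidin donor beads; IC50 from percent inhibition relative to no-compound and no-enzyme controls.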

Where [4] appears, read: read-out: Inhibitory activity (G9a IC50).

Structures are written as SMILES. Like-named read-outs stand apart in the source and are kept apart here.

The term GI50 denotes the concentration giving 50% growth inhibition. Broadly, the IC50 is the concentration at which inhibition is half-maximal. Take `Cc1c(C(=O)N[C@@H](CCC2CC2)C(=O)Nc2ccccc2)[nH]c2c1C(=O)CC(C)(C)C2` [Example 6-26]: in experiment [1], the GI50 is less than 0.5 µM. Moreover, the concentration for half-maximal inhibition (IC50) in experiment [2] and in experiment [3] (setting [4]) was less than 0.05 µM in each case.

Regarding `Cc1ccc(NC(=O)[C@H](CCC2CC2)NC(=O)c2[nH]c3c(c2C)C(=O)CC(C)(C)C3)cn1` [Example 6-10], the GI50 in experiment [1] is 0.5 to 1 µM. In addition, the IC50 in experiment [2] was 0.05 to 0.5 µM; in experiment [3] (setting [4]) it was less than 0.05 µM.

Regarding `CCCCC(NC(=O)Cc1ccccc1)C(=O)Nc1ccc(OC2CCN(C)CC2)nc1` (stereo not drawn) [Example 12-2], the GI50 in experiment [1] was no less than 1 µM. Further, the IC50 is 0.05 to 0.5 µM in experiment [2] and no less than 0.2 µM in experiment [3] (setting [4]).

As to `COc1ccc(NC(=O)[C@H](CCC2CC2)NC(=O)c2ccc(Nc3ccncc3)cc2)cn1` [Example 6-88], in experiment [1], the 50% growth inhibitory concentration (GI50) was less than 0.5 µM. Also, the IC50 in experiment [2] and in experiment [3] (setting [4]) was less than 0.05 µM in each case.

`CCCCNC(=O)C(CCC1CC1)NC(=O)c1[nH]c2c(c1C)C(=O)CC(C)(C)C2` (stereo not drawn) [Example 1-82]: the GI50 in experiment [1] was no less than 1 µM. The IC50 is less than 0.05 µM in experiment [2] and 0.05 to 0.2 µM in experiment [3] (biotinylated histone H3 peptide (1-21), SAM, read-out: Inhibitory activity (G9a IC50 value)).
